ChEMBL document CHEMBL4359907, “Scalable and cost-effective tosylation-mediated synthesis of antifungal and fungal diagnostic 6″-Modified amphiphilic kanamycins” (Eur J Med Chem, 2019)
≈ marks a conversion by molar mass, not a printed value.

Columns and labels:
Staphylococcus aureus [1] = assay: Antibacterial activity against Staphylococcus aureus ATCC 25923 incubated for 18 hrs by two fold dilution method; type: functional; settings: ATCC 25923, 18 h
Candida tropicalis = assay: Antifungal activity against Candida tropicalis 95-41 incubated for 24 to 36 hrs by two fold dilution method; type: functional
Staphylococcus aureus [2] = assay: Antibacterial activity against methicillin-resistant Staphylococcus aureus ATCC 33591 incubated for 18 hrs by two fold dilution method; type: functional; settings: ATCC 33591, 18 h
Candida albicans [3] = assay: Antifungal activity against azole-resistant Candida albicans 64124 incubated for 24 to 36 hrs by two fold dilution method; type: functional
Staphylococcus aureus [4] = assay: Antibacterial activity against methicillin-resistant Staphylococcus aureus ATCC 43300 incubated for 18 hrs by two fold dilution method; type: functional; settings: ATCC 43300, 18 h
Cryptococcus neoformans [5] = assay: Antifungal activity against Cryptococcus neoformans H99 incubated for 24 to 36 hrs by two fold dilution method; type: functional
Cryptococcus neoformans [6] = assay: Antifungal activity against Cryptococcus neoformans VR-54 incubated for 24 to 36 hrs by two fold dilution method; type: functional
Candida albicans [7] = assay: Antifungal activity against azole-susceptible Candida albicans MYA2876 incubated for 24 to 36 hrs by two fold dilution method; type: functional
Diutina rugosa = assay: Antifungal activity against Candida rugosa 95-967 incubated for 24 to 36 hrs by two fold dilution method; type: functional
Fusarium graminearum = assay: Antifungal activity against Fusarium graminearum B4-5A incubated for 24 to 36 hrs by two fold dilution method; type: functional
Candida parapsilosis = assay: Antifungal activity against azole-resistant Candida parapsilosis Cas08-0490 incubated for 24 to 36 hrs by two fold dilution method; type: functional; settings: Lodderomyces parapsilosis
Escherichia coli = assay: Antibacterial activity against Escherichia coli ATCC 25922 incubated for 18 hrs by two fold dilution method; type: functional; settings: ATCC 25922, 18 h
Candida albicans [8] = assay: Antifungal activity against Candida albicans B-311 incubated for 24 to 36 hrs by two fold dilution method; type: functional
Rhodotorula mucilaginosa = assay: Antifungal activity against Rhodotorula pilimanae ATCC 26423 incubated for 24 to 36 hrs by two fold dilution method; type: functional
HeLa = assay: Cytotoxicity against human HeLa cells assessed as reduction in cell viability incubated for 24 hrs by MTT assay; type: cell-based

SMILES	MIC (Staphylococcus aureus [1]) [µg/mL]	MIC (Candida tropicalis) [µg/mL]	MIC (Staphylococcus aureus [2]) [µg/mL]	MIC (Candida albicans [3]) [µg/mL]	MIC (Staphylococcus aureus [4]) [µg/mL]	MIC (Cryptococcus neoformans [5]) [µg/mL]	MIC (Cryptococcus neoformans [6]) [µg/mL]	MIC (Candida albicans [7]) [µg/mL]	MIC (Diutina rugosa) [µg/mL]	MIC (Fusarium graminearum) [µg/mL]	MIC (Candida parapsilosis) [µg/mL]	MIC (Escherichia coli) [µg/mL]	MIC (Candida albicans [8]) [µg/mL]	MIC (Rhodotorula mucilaginosa) [µg/mL]	IC50 (HeLa) [µg/mL]
CCCCCCCCSC[C@H]1O[C@H](O[C@@H]2[C@@H](O)[C@H](O[C@H]3O[C@H](CN)[C@@H](O)[C@H](O)[C@H]3O)[C@@H](N)C[C@H]2N)[C@H](O)[C@@H](N)[C@@H]1O.Cl.Cl.Cl.Cl	128	> 256	256	128	256	128	64	256	256	128	> 256	128	> 256	32	–
CCCCCCCCS(=O)(=O)OC[C@H]1O[C@H](O[C@@H]2[C@@H](O)[C@H](O[C@H]3O[C@H](CN)[C@@H](O)[C@H](O)[C@H]3O)[C@@H](N)C[C@H]2N)[C@H](O)[C@@H](N)[C@@H]1O	–	16 (≈ 24.2 µM)	–	16 (≈ 24.2 µM)	–	4 (≈ 6.05 µM)	4 (≈ 6.05 µM)	16 (≈ 24.2 µM)	32 (≈ 48.4 µM)	8 (≈ 12.1 µM)	16 (≈ 24.2 µM)	–	16 (≈ 24.2 µM)	4 (≈ 6.05 µM)	–
CCCCCCCCCCCCCCSC[C@H]1O[C@H](O[C@@H]2[C@@H](O)[C@H](O[C@H]3O[C@H](CN)[C@@H](O)[C@H](O)[C@H]3O)[C@@H](N)C[C@H]2N)[C@H](O)[C@@H](N)[C@@H]1O.Cl.Cl.Cl.Cl	16	4	16	4	16	2	2	4	8	2	16	16	8	2	52.9
CCCCCCCCCCNC[C@H]1O[C@H](O[C@@H]2[C@@H](O)[C@H](O[C@H]3O[C@H](CN)[C@@H](O)[C@H](O)[C@H]3O)[C@@H](N)C[C@H]2N)[C@H](O)[C@@H](N)[C@@H]1O.Cl.Cl.Cl.Cl.Cl	128	> 256	256	128	64	8	8	> 256	256	32	256	64	256	8	–
Cc1ccc(S(=O)(=O)OC[C@H]2O[C@H](O[C@@H]3[C@@H](O)[C@H](O[C@H]4O[C@H](CN)[C@@H](O)[C@H](O)[C@H]4O)[C@@H](N)C[C@H]3N)[C@H](O)[C@@H](N)[C@@H]2O)cc1.Cl.Cl.Cl.Cl	32	> 256	> 256	> 256	> 256	> 256	> 256	> 256	> 256	128	> 256	16	> 256	128	–
CCCCCCCCCCSC[C@H]1O[C@H](O[C@@H]2[C@@H](O)[C@H](O[C@H]3O[C@H](CN)[C@@H](O)[C@H](O)[C@H]3O)[C@@H](N)C[C@H]2N)[C@H](O)[C@@H](N)[C@@H]1O.Cl.Cl.Cl.Cl	64	128	64	64	32	8	8	64	64	32	128	64	128	4	–
CCCCCCCCCCCCSC[C@H]1O[C@H](O[C@@H]2[C@@H](O)[C@H](O[C@H]3O[C@H](CN)[C@@H](O)[C@H](O)[C@H]3O)[C@@H](N)C[C@H]2N)[C@H](O)[C@@H](N)[C@@H]1O.Cl.Cl.Cl.Cl	32	32	32	16	16	2	2	16	16	4	32	16	32	2	> 100
CCCCCCCCCCCCCCCCSC[C@H]1O[C@H](O[C@@H]2[C@@H](O)[C@H](O[C@H]3O[C@H](CN)[C@@H](O)[C@H](O)[C@H]3O)[C@@H](N)C[C@H]2N)[C@H](O)[C@@H](N)[C@@H]1O.Cl.Cl.Cl.Cl	16	4	32	4	16	2	2	4	4	2	4	32	4	2	37.7
CCCCCCCCNC[C@H]1O[C@H](O[C@@H]2[C@@H](O)[C@H](O[C@H]3O[C@H](CN)[C@@H](O)[C@H](O)[C@H]3O)[C@@H](N)C[C@H]2N)[C@H](O)[C@@H](N)[C@@H]1O.Cl.Cl.Cl.Cl.Cl	128	> 256	> 256	256	128	16	16	> 256	> 256	32	> 256	256	> 256	16	–
CCCCCCCCCCCCNC[C@H]1O[C@H](O[C@@H]2[C@@H](O)[C@H](O[C@H]3O[C@H](CN)[C@@H](O)[C@H](O)[C@H]3O)[C@@H](N)C[C@H]2N)[C@H](O)[C@@H](N)[C@@H]1O.Cl.Cl.Cl.Cl.Cl	64	32	64	16	32	2	2	64	16	2	32	16	32	2	> 100
CCCCCCCCCCCCCCCCNC[C@H]1O[C@H](O[C@@H]2[C@@H](O)[C@H](O[C@H]3O[C@H](CN)[C@@H](O)[C@H](O)[C@H]3O)[C@@H](N)C[C@H]2N)[C@H](O)[C@@H](N)[C@@H]1O.Cl.Cl.Cl.Cl.Cl	16	4	32	4	32	2	2	8	4	2	4	32	4	2	41.6
CCCCCCSC[C@H]1O[C@H](O[C@@H]2[C@@H](O)[C@H](O[C@H]3O[C@H](CN)[C@@H](O)[C@H](O)[C@H]3O)[C@@H](N)C[C@H]2N)[C@H](O)[C@@H](N)[C@@H]1O.Cl.Cl.Cl.Cl	256	> 256	> 256	> 256	> 256	128	64	> 256	> 256	256	> 256	128	> 256	32	–
CCCCCCNC[C@H]1O[C@H](O[C@@H]2[C@@H](O)[C@H](O[C@H]3O[C@H](CN)[C@@H](O)[C@H](O)[C@H]3O)[C@@H](N)C[C@H]2N)[C@H](O)[C@@H](N)[C@@H]1O.Cl.Cl.Cl.Cl.Cl	64	> 256	> 256	> 256	> 256	128	128	> 256	> 256	64	> 256	256	> 256	128	–
NC[C@H]1O[C@H](O[C@H]2[C@H](O)[C@@H](O[C@H]3O[C@H](CO)[C@@H](O)[C@H](N)[C@H]3O)[C@H](N)C[C@@H]2N)[C@H](O)[C@@H](O)[C@@H]1O [KANAMYCIN]	4 (≈ 8.26 µM)	–	> 256	≥ 256	> 256	–	≥ 256	≥ 256	–	≥ 256	–	4 (≈ 8.26 µM)	≥ 256	≥ 256	–
CCCCCCCCCCCCCCNC[C@H]1O[C@H](O[C@@H]2[C@@H](O)[C@H](O[C@H]3O[C@H](CN)[C@@H](O)[C@H](O)[C@H]3O)[C@@H](N)C[C@H]2N)[C@H](O)[C@@H](N)[C@@H]1O.Cl.Cl.Cl.Cl.Cl	16	4	16	4	16	2	2	8	4	2	4	32	8	2	60.8
